Experimental data published in PMC10669052, “Exploring Differences in Pharmacometrics of Rabeprazole between Genders via Population Pharmacokinetic–Pharmacodynamic Modeling” (Biomedicines, 2023).
Values after ≈ are worked out from the molar mass of the structure shown. Where two headings read alike, the source gives them in different places.

How the values were obtained:
[1] = clinical; settings: for AUC / AUC(0-inf) / AUCextrap / Cmax / MRT / Tmax / Vd/F / half-life: human, in vivo, po
Procedure: Analysis of biochemical parameters was performed on all subjects participating in the clinical trial and the methods are presented in Supplementary Information S1. Information relating to the selection and progress of clinical trial participants is presented in Supplementary Information S2, and information on the clinical trial design and sampling is presented in Supplementary Information S3. The clinical trial protocol was thoroughly reviewed and officially approved (approval number: MB22-002; approved on 15 February 2022) by the Ministry of Food and Drug Safety (Cheongju-si, Republic of Korea). NCA was used to calculate the rabeprazole pharmacokinetic parameters for males and females before a comparison of rabeprazole pharmacokinetics was performed between genders to determine any significant rabeprazole pharmacokinetic parameters in males and females. Pharmacokinetic parameters calculated by NCA were estimated based on plasma concentration values over time after orally administering a 10 mg rabeprazole enteric-coated tablet. Information on the analytical method applied to quantify rabeprazole among plasma samples is briefly presented in Supplementary Information S4, whereas the methods for calculating pharmacokinetic parameters using NCA are presented in Supplementary Information S5. An additional NCA analysis was performed based on the normalized rabeprazole plasma concentration values for body weight, which is one of the major physiological differences between genders that has been frequently applied in past pharmacokinetic comparative studies between genders, and the results were categorized and compared by gender. The significant differences between genders were compared using a two-tailed t test, with significance determined at a p value of 0.05.
43 Supplementary Information 3
45 Clinical trial design and sampling
46 This bioequivalence investigation was performed as randomized, single-dose, open-label,
47 crossover, and two-way studies (with a washout period of 7 days). Prior to the clinical trial,
49 Minneapolis, MN, USA) installed into a vein on the arm or back of the hand, and 6 mL of blank
50 blood was collected. Then, all subjects were orally administered a single 10 mg rabeprazole
51 enteric-coated tablet along with 150 mL of water. Subjects had fasted for more than 10 h before
52 administration. Blood sampling from subjects was performed at a total of 13 specific time
53 points post-dose: Before administration (0 h) and at 1, 2, 2.5, 3, 3.5, 4, 4.5, 5, 5.5, 6, 7, 8, and
54 10 h after oral administration. The sampling method was as follows: To completely remove the
55 heparinized saline solution remaining in the venous catheter during blood collection,
56 approximately 1 mL of blood was collected and discarded each time, and approximately 6 mL
57 of blood was collected and placed in sodium heparinized vacutainer tubes (BD, Franklin Lakes,
58 NJ, USA) with the subject management number and blood collection time written on them.
59 After each blood draw, a saline solution for injection (containing heparin for injection) was
60 administered to prevent the blood remaining in the intravenous catheter from clotting. The
61 collected blood was centrifuged at 3,000 ×g for 10 min in a centrifuge set at 4 °C, and then
62 approximately 1 mL of plasma was taken, transferred to an Eppendorf tube (Eppendorf, […]

[2] = Population pharmacokinetic model (three sequential absorption with Tlag, two-compartment; Phoenix NLME); type: in vivo, human; settings: for CL/F: both sexes, human, plasma, oral, 10 mg, read-out: tvCLc/F (typical value, central compartment clearance) (converted)
Procedure: Construction and analysis of the population pharmacokinetic model for rabeprazole were performed using a non-linear mixed effects model approach using Phoenix NLME (version 8.4, Pharsight, Certara Inc., Princeton, NJ, USA) software. An estimation of population pharmacokinetic parameters for rabeprazole was performed using the first-order conditional estimates method with extended least squares estimation (with ŋ–ε interaction). The development of the rabeprazole population pharmacokinetic model was largely performed in two steps. First, a basic structural model was established that could explain the plasma concentration of rabeprazole following its oral administration. This included a number of basic compartments, whether to reflect the lag time (Tlag) associated with rabeprazole oral absorption, the mechanistic structuring involved in the absorption process (including multiple absorption), or the selection of relevant error models to account for residual and IIV. Thus, in establishing the model, the values obtained using the NCA calculations were reflected as the initial parameter values, which accelerated the convergence of the final parameters and enabled its effective modeling. Second, a search was performed for model-applicable effective covariates relevant to the inter-individual rabeprazole pharmacokinetic variation modeling. This was achieved by applying stepwise candidate covariates to the IIVs of the pharmacokinetic parameters reflected in the model. Gender and individual physiological and biochemical factors were considered potential effective covariates and treated as categorical and continuous data, respectively, before application priorities were determined based on the results of the previous correlation screening. Appropriate models for each step were selected and performed using various statistical significance tools derived from Phoenix NLME, including Akaike’s information criterion (AIC), twice the negative log-likelihood (−2LL), and goodness-of-fit (GOF) plots, whereas the significance of the total number of parameters applied to the model (increased or decreased degrees of freedom) was also considered. Significance was determined using a Chi-square distribution p value of 0.05 (for forward selection) and 0.01 (for backward elimination) at −2LL and objective function value (OFV). The adequacy of the rabeprazole population pharmacokinetic model was verified using GOF (including distribution of residuals), visual predictive check (VPC), and bootstrapping processes. Approaches to each tool for model verification are presented in Supplementary Information S6.
The structure of the rabeprazole population pharmacokinetic model can be explained as two compartments, each with three sequential first-order absorption and Tlag values. As for the basic compartments, significant model improvements (−2LL reduction of p < 0.05 and/or 0.01) were confirmed in two-compartment structures rather than in one, whereas the −2LL increased in three- or more compartment structures alongside the total number of parameters. As a result, the plasma rabeprazole concentration profiles could be explained by its distribution in the central and peripheral compartments with two kinetics in the body. Regarding the delayed absorption pattern of rabeprazole during the absorption phase, several structural absorption compartment models have been attempted, such as the Tlag reflection model, the non-sequential two absorption model (having two or more absorption points with consideration of bioavailability), and the sequential absorption model (via the application of two or more absorption rate constant parameters between successive absorption compartments). In addition, mathematical transformation models, such as Weibull absorption, saturation, zero-order, and mean transit time (MTT) have also been attempted. […]

[3] = system: gastric pH; experiment: Pharmacodynamic model (sigmoid Emax with baseline) of gastric pH versus rabeprazole plasma concentration; type: in vivo, human; settings: sigmoid Emax model with baseline fitted to digitized gastric pH vs plasma concentration data
Text: The pharmacodynamic model was established based on rabeprazole plasma concentration-measured drug efficacy information (quantified using Web-plot-digitizer (version 4.6)), according to the rabeprazole exposure. The efficacy of rabeprazole was indicated by changes in gastric pH, which was related to plasma rabeprazole selectively inhibiting H^+/K^+-ATPase in gastric parietal cells, thereby increasing intragastric pH. Pharmacodynamic predictions for rabeprazole were achieved by structuring the effect compartment related to the rabeprazole pharmacokinetic profile in the central compartment. Simply, the change in the plasma pharmacokinetic profile over time after administering rabeprazole is directly related to the change in drug efficacy. Therefore, it could be expanded and implemented as a pharmacodynamic model, whereby the time–drug effect after exposure to rabeprazole can be quantified. The established and validated population pharmacokinetic model structure and parameter values associated with rabeprazole were fixed as representative values of the population before being expanded into a model to predict the pharmacodynamics of rabeprazole. This was conducted to explore the effect of any differences in the absorption rate of rabeprazole between genders.

[4] = final population PK model, Estimate
[5] = population PK model estimate as quoted in text

## COCCCOc1ccnc(C[S+]([O-])c2nc3ccccc3[nH]2)c1C (centres unmarked) [rabeprazole, Rabeprazole]
[1]; both, 10 mg
  AUC: 432 ± 166 ng·h/mL
  AUC(0-inf): 456 ± 174 ng·h/mL
  AUCextrap: 5.07 ± 9.42%
  Cmax: 236.57 ± 97.86 ng/mL
  MRT: 4.79 ± 1.7 h
  Tmax: 3.71 ± 1.22 h
  Vd/F: 53.9 ± 27.3 L
  half-life: 1.55 ± 0.54 h
[1]; female
  Tmax: 4.1 ± 1.15 h
[1]; female, 10 mg
  AUC: 424 ± 176 ng·h/mL
  AUC(0-inf): 453 ± 181 ng·h/mL
  AUCextrap: 4.38 ± 7.82%
  Cmax: 260 ± 113 ng/mL
  MRT: 5.25 ± 1.97 h
  Vd/F: 54.3 ± 38.1 L
  half-life: 1.48 ± 0.64 h
[1]; male, 10 mg
  AUC: 439 ± 161 ng·h/mL
  AUC(0-inf): 459 ± 172 ng·h/mL
  AUCextrap: 3.84 ± 4.01%
  Cmax: 216 ± 79.6 ng/mL
  MRT: 4.4 ± 1.36 h
  Tmax: 3.38 ± 1.21 h
  Vd/F: 53.5 ± 12.8 L
  half-life: 1.6 ± 0.44 h
[1]; single oral 10 mg enteric-coated tablet, NCA, body weight normalized, Total (n = 45), mean ± SD
  AUCinf (plasma concentrations normalized by body weight): 7.17 ± 3.34 ng·h/mL/kg
[2]; Bootstrap (n = 1000) Median
  dKa3dBSA (quantitative correlation value between Ka3 and body surface area): −0.95
  dTlagdGender (quantitative correlation value between Tlag and gender): 0.67
  tvCLp/F (typical value, peripheral compartment clearance): 5.38 L/h
  tvKa1 (first sequential absorption rate constant): 1.89 h⁻¹
  tvKa2 (second sequential absorption rate constant): 2.03 h⁻¹
  tvKa3 (third sequential absorption rate constant): 3.26 h⁻¹
  tvTlag (typical value, lag time): 1.55 h
  tvVc/F (typical value, central compartment distribution volume): 10.06 L
  tvVp/F (typical value, peripheral compartment distribution volume): 11.30 L
  ε (residual error): 0.35
  ω^2CLc/F (inter-individual variability): 0.14
  ω^2Ka1 (inter-individual variability): 0.00
  ω^2Ka2 (inter-individual variability): 0.00
  ω^2Ka3 (inter-individual variability): 1.82
  ω^2Tlag (inter-individual variability): 0.23
  ω^2Vc/F (inter-individual variability): 1.55
  CL/F: 424 mL/min
[2]; [4]
  CL/F: 428 mL/min
  dKa3dBSA (quantitative correlation value between Ka3 and body surface area): −1.11
  tvCLp/F (typical value, peripheral compartment clearance): 5.45 L/h
  tvKa1 (first sequential absorption rate constant, dosing depot–depot 1): 1.91 h⁻¹
  tvKa2 (second sequential absorption rate constant, depot 1–depot 2): 2.43 h⁻¹
  tvKa3 (third sequential absorption rate constant, depot 2–central compartment): 3.34 h⁻¹
  tvTlag (typical value, lag time): 1.56 h
  tvVc/F (typical value, central compartment distribution volume): 10.31 L
  tvVp/F (typical value, peripheral compartment distribution volume): 11.46 L
  ω^2CLc/F (inter-individual variability): 0.14
  ω^2Ka1 (inter-individual variability): 0.00
  ω^2Ka2 (inter-individual variability): 0.00
  ω^2Ka3 (inter-individual variability): 1.74
  ω^2Tlag (inter-individual variability): 0.23
  ω^2Vc/F (inter-individual variability): 2.04
[2]; final population PK model, Estimate, female = 1, male = 0
  dTlagdGender (quantitative correlation value between Tlag and gender): 0.73
[2]; final population PK model, Estimate, log-additive error model
  ε (residual error): 0.37
[2]; [5]
  Vc/F estimate: 10.3 L
  Vp/F estimate: 11.5 L
[3]; Homo sapiens, read-out: EC50 (plasma rabeprazole concentration required to achieve 50% of the Emax)
  EC50: 0.0516 µg/mL (≈ 0.143 µM)
[3]
  E0 (basal pH effect in the stomach that occurs without rabeprazole): 2.50
  Emax (maximal effect of increasing gastric pH by plasma rabeprazole level): 4.72
  γ (sigmoidicity factor): 5.04
